Measurements from paper PMC3350394, “Kinetic analysis and test-retest variability of the radioligand [^11C](R)-PK11195 binding to TSPO in the human brain - a PET study in control subjects” (EJNMMI Research, 2012).
Where “and” joins values, the source holds several entries; their conditions need not be identical. Identical values can stand only once.

Experiments:
[1] = Radioligand brain exposure (PET); assay type: in vivo, human
Experimental: To calculate the percentage of [^11C](R)-PK11195 injected that was present in the brain at the time of maximal radioactivity, the radioactivity concentration in the ROI for the whole brain was multiplied by the estimated average brain volume (1,250 mL), divided by the radioactivity injected and multiplied by 100 to obtain the percentage of injected radioactivity.
Average radioactivity for the ROI was calculated by pooling the data from the series of brain sections. The radioactivity concentration for each sequential time frame was corrected for the physical decay of carbon-11 and used to obtain the regional time-radioactivity curves (TACs; in kiloBecquerels per cubic centimetre).

[2] = Plasma metabolite analysis using HPLC; assay type: in vivo, human
Source text: The method for the determination of the fraction of radioactivity corresponding to unchanged [^11C](R)-PK11195 and labelled metabolites during the time of a PET measurement was a modification of a high-performance liquid chromatography (HPLC) method developed for other PET radioligands. […] The HPLC system used consisted of a Merck-Hitachi D-7000 interface module, a Merck-Hitachi L-7100 pump and a Rheodyne injector (7125 with a 5.0-mL loop) (VWR International, Stockholm, Sweden) equipped with a Waters/-Bondapack-C18 column (300 mm × 7.8 mm, 10-μm particle size; Waters, Milford, MA, USA) and a Merck-Hitachi L-7400 absorbance detector (254 nm) in series with a Packard Radiomatic 150TR radiometric detector (Packard BioScience, Meriden, CT, USA) equipped with a PET flow cell (600-μL cell). The HPLC methods used were acetonitrile (A) and phosphoric acid (0.01 M) (B) as mobile phase at 6.0 mL/min. […] The radioactive peak having a retention time corresponding to [^11C](R)-PK11195 was integrated, and its area was expressed as a percentage of the sum of the areas of all detected radioactive peaks.

[3] = design: method as in PMID 19050880, PMID 16039131; settings: cited from earlier work
[4] = system: p-glycoprotein-ABCB1; design: method as in PMID 19948230; settings: cited from earlier work
[5] = system: ABCC1; design: method as in PMID 19948230; settings: cited from earlier work
[6] = system: ABCG2; design: method as in PMID 19948230; settings: cited from earlier work
[7] = system: TSPO; design: method as in PMID 1782994; settings: grey matter; baboons; indirect quantitative approach; cited from earlier work
[8] = system: TSPO; design: method as in PMID 22008728; settings: TSPO SNP Ala147Thr; cited from earlier work
[9] = target: T1, TSPO (Homo sapiens, UniProt P30536); experiment: PET, modified 2TCM with shared K1/k2; assay type: in vivo; design: from tissue; host or cells: living human brain (in vivo PET in six control subjects); settings: first PET measurement
Experimental: In addition, data were analysed using a modified 2TCM model which fitted parameters K1/k2, k2, k3 and k4 of the model to several TACs simultaneously in a way that the parameter K1/k2 was shared between regions. First, all ROIs primarily consisting of the grey matter, including the ROI of the typical GM uptake, were fitted in this way then followed by a fit involving white matter regions and, again, the ROI of the typical GM uptake. The ROI of the typical GM uptake was used in the second fitting session to allow for a coupling of K1/k2 between that region and white matter ROIs. However, the parameters obtained for the typical GM ROI in the first session were retained for final analysis.

[10] = target: T1, TSPO; experiment: PET, linear graphical analysis (Logan) distribution volume; assay type: in vivo; design: from tissue; host or cells: living human brain (in vivo PET in six control subjects); settings: for Error % mean(SD) / Error range (%): VT Logan test-retest; for VT Logan: mean(SD)
Experimental: The [^11C](R)-PK11195 distribution volume was also quantified using a linear graphical analysis for reversible ligand binding. The regional distribution volumes were determined from the slope of the linear plots obtained from 8 to 60 min after intravenous (i.v.) injection using the radioactivity of unchanged [^11C](R)-PK11195 in arterial plasma as an input function.

[11] = at peak, approximately 1 min after i.v. injection, n = 6
[12] = by the end of PET measurement time
[13] = cortical grey matter, individual subjects 1-6
[14] = cortical grey matter, mean of 6 subjects
[15] = white matter, individual subjects 1-6
[16] = white matter, mean of 6 subjects

T1 sequence (P30536 whole entry): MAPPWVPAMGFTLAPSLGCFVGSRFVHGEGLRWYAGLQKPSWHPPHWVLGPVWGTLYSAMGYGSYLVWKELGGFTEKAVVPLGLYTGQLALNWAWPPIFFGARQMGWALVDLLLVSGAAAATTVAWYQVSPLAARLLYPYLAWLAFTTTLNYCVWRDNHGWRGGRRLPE

CC[C@@H](C)N([11CH3])C(=O)c1cc2ccccc2c(-c2ccccc2Cl)n1 [[^11C](R)-PK11195]
radioactivity injected (ID%) present in the brain [1, 11]: about 2.5%
radioactivity injected (ID%) present in the brain, range [1, 11]: 1.9% to 3.2
time of peak of total brain radioactivity after injection ([1]; intravenous injection): approximately 1 min
mean ID% in the brain ([1]; measurement time from 20 to 60 min): 1.5% to 1.3
polarity of radioactive metabolites in plasma ([2]; HPLC): more polar than the parent compound
unchanged fraction in plasma [2, 12]: 70 ± 1.5%
unchanged fraction in plasma, range [2, 12]: 60% to 77
metabolism ([2]; human plasma): not extensive
log P [3]: 1.4 to 3.4
substrate for ABC transporter [4]: not a substrate
substrate for ABC transporter [5]: not a substrate
substrate for ABC transporter [6]: not a substrate
fraction of non-specifically bound radioligand [7]: about 60%
sensitivity to TSPO genotype [8]: not sensitive to TSPO genotype
k2 ([9]; cortical grey matter): 0.228 min⁻¹
k3 ([9]; cortical grey matter): 0.053 min⁻¹
K1 [9, 13]: 0.050 mL/cc/min and 0.092 mL/cc/min and 0.070 mL/cc/min and 0.089 mL/cc/min and 0.046 mL/cc/min and 0.080 mL/cc/min
k2 [9, 13]: 0.180 min⁻¹ and 0.236 min⁻¹ and 0.228 min⁻¹ and 0.307 min⁻¹ and 0.185 min⁻¹ and 0.235 min⁻¹
k3 [9, 13]: 0.021 min⁻¹ and 0.055 min⁻¹ and 0.046 min⁻¹ and 0.124 min⁻¹ and 0.035 min⁻¹ and 0.036 min⁻¹
k4 [9, 13]: 0.014 min⁻¹ and 0.054 min⁻¹ and 0.025 min⁻¹ and 0.061 min⁻¹ and 0.026 min⁻¹ and 0.020 min⁻¹
K1 [9, 14]: 0.071 mL/cc/min
k4 [9, 14]: 0.033 min⁻¹
k2 ([9]; white matter): 0.159 min⁻¹
k3 ([9]; white matter): 0.036 min⁻¹
K1 [9, 15]: 0.067 mL/cc/min and 0.056 mL/cc/min and 0.062 mL/cc/min and 0.032 mL/cc/min and 0.061 mL/cc/min and 0.036 mL/cc/min
k2 [9, 15]: 0.169 min⁻¹ and 0.180 min⁻¹ and 0.159 min⁻¹ and 0.129 min⁻¹ and 0.182 min⁻¹ and 0.138 min⁻¹
k3 [9, 15]: 0.040 min⁻¹ and 0.045 min⁻¹ and 0.046 min⁻¹ and 0.026 min⁻¹ and 0.033 min⁻¹ and 0.024 min⁻¹
k4 [9, 15]: 0.033 min⁻¹ and 0.021 min⁻¹ and 0.027 min⁻¹ and 0.013 min⁻¹ and 0.012 min⁻¹
K1 [9, 16]: 0.052 mL/cc/min
k4 [9, 16]: 0.020 min⁻¹
Error % mean(SD) ([10]; brainstem): -8(12) %
Error range (%) ([10]; brainstem): -24 to 12%
VT Logan ([10]; brainstem, retest): 0.67(0.19)
VT Logan ([10]; brainstem, test): 0.74(0.21)
Error % mean(SD) ([10]; caudate): -5(23) %
Error range (%) ([10]; caudate): -37 to 25%
VT Logan ([10]; caudate, retest): 0.59(0.19)
VT Logan ([10]; caudate, test): 0.64(0.16)
Error % mean(SD) ([10]; cerebellum): -4(18) %
Error range (%) ([10]; cerebellum): -29 to 20%
VT Logan ([10]; cerebellum, retest): 0.68(0.18)
VT Logan ([10]; cerebellum, test): 0.72(0.18)
Error % mean(SD) ([10]; grey matter): -4(16) %
Error range (%) ([10]; grey matter): -28 to 17%
VT Logan ([10]; grey matter, retest): 0.65(0.18)
VT Logan ([10]; grey matter, test): 0.69(0.17)
Error % mean(SD) ([10]; putamen): 3(25) %
Error range (%) ([10]; putamen): -25 to 42%
VT Logan ([10]; putamen, retest): 0.73(0.26)
VT Logan ([10]; putamen, test): 0.70(0.15)
Error % mean(SD) ([10]; thalamus): -3(20) %
Error range (%) ([10]; thalamus): -26 to 27%
VT Logan ([10]; thalamus, retest): 0.76(0.25)
VT Logan ([10]; thalamus, test): 0.80(0.24)
Error % mean(SD) ([10]; white matter): -4(19) %
Error range (%) ([10]; white matter): -32 to 19%
VT Logan ([10]; white matter, retest): 0.65(0.20)
VT Logan ([10]; white matter, test): 0.69(0.18)
Error % mean(SD) ([10]; whole brain): -4(16) %
Error range (%) ([10]; whole brain): -29 to 17%
VT Logan ([10]; whole brain, retest): 0.65(0.19)
VT Logan ([10]; whole brain, test): 0.69(0.17)
